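Test compounds were applied to cells in 96-well plates for 48 hours at 5 doses. At the GI50, growth is halved. TGI: concentration producing complete growth inhibition.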
Columns and labels:
Assay in all cases: NCI anticancer screen, dose series, 48 h
[1] = test system: NCI-H226 lung
[2] = test system: HCC-2998 colon
[3] = test system: IGROV1 ovarian
[4] = test system: K-562 leukemia
[5] = test system: MDA-MB-231 breast
[6] = test system: SK-OV-3 ovarian
[7] = test system: A498 renal
[8] = test system: HCT-15 colon
[9] = test system: SK-MEL-2 melanoma
[10] = test system: UO-31 renal
[11] = test system: OVCAR-8 ovarian
[12] = test system: MDA-MB-435
[13] = test system: UACC-257 melanoma
[14] = test system: OVCAR-5 ovarian
[15] = test system: HCT-116 colon
[16] = test system: HOP-62 NSCLC
[17] = test system: ACHN renal
[18] = test system: CAKI-1 renal
[19] = test system: LOX IMVI melanoma
[20] = test system: M14 melanoma
[21] = test system: NCI/ADR-RES ovarian
[22] = test system: SR leukemia
[23] = test system: T-47D breast
[24] = test system: HT29 colon
[25] = test system: COLO 205 colon
[26] = test system: SK-MEL-5 melanoma
[27] = test system: SW-620 colon
[28] = test system: NCI-H522 lung
[29] = test system: SF-295 CNS
[30] = test system: PC-3 prostate
[31] = test system: EKVX NSCLC
[32] = test system: SF-268 CNS
[33] = test system: SF-539 CNS
[34] = test system: 786-0 renal
[35] = test system: BT-549 breast
[36] = test system: KM12 colon
[37] = test system: SN12C renal
[38] = test system: SNB-19 CNS
[39] = test system: MOLT-4 leukemia
[40] = test system: HL-60(TB) leukemia
[41] = test system: CCRF-CEM leukemia
[42] = test system: UACC-62 melanoma
[43] = test system: U251 CNS
[44] = test system: NCI-H460 lung
[45] = test system: MCF7 breast
[46] = test system: DU-145 prostate
[47] = test system: NCI-H23 lung

## Cc1c(C(N)=O)sc2c1c(=O)n(Cc1ccccc1)c1nnc(SCC(=O)Nc3ccc(Cl)cc3)n21
[1]
  GI50: 5.8 µM
  TGI: 46.2 µM
[2]
  GI50: 5.56 µM
  TGI: > 100 µM
[3]
  GI50: 28 µM
  TGI: > 100 µM
[4]
  GI50: 12.6 µM
  TGI: > 100 µM
[5]
  GI50: 3.81 µM
  TGI: 19.4 µM
[6]
  GI50: 3.37 µM
  TGI: > 100 µM
[7]
  GI50: 2.51 µM
  TGI: > 100 µM
[8]
  GI50: > 100 µM
  TGI: > 100 µM
[9]
  GI50: > 100 µM
  TGI: > 100 µM
[10]
  GI50: > 100 µM
  TGI: > 100 µM
[11]
  GI50: 4.03 µM
  TGI: > 100 µM
[12]
  GI50: > 100 µM
  TGI: > 100 µM
[13]
  GI50: 3.44 µM
  TGI: > 100 µM
[14]
  GI50: > 100 µM
  TGI: > 100 µM
[15]
  GI50: 1.95 µM
  TGI: 4.85 µM
[16]
  GI50: 3.71 µM
  TGI: 15.5 µM
[17]
  GI50: > 100 µM
  TGI: > 100 µM
[18]
  GI50: > 100 µM
  TGI: > 100 µM
[19]
  GI50: 5.45 µM
  TGI: > 100 µM
[20]
  GI50: 4.63 µM
  TGI: > 100 µM
[21]
  GI50: > 100 µM
  TGI: > 100 µM
[22]
  GI50: 3.19 µM
  TGI: 14 µM
[23]
  GI50: 3.52 µM
  TGI: 15.1 µM
[24]
  GI50: > 100 µM
  TGI: > 100 µM
[25]
  GI50: 6.99 µM
  TGI: > 100 µM
[26]
  GI50: 4.89 µM
  TGI: 24 µM
[27]
  GI50: > 100 µM
  TGI: > 100 µM
[28]
  GI50: 4.12 µM
  TGI: > 100 µM
[29]
  GI50: 4.71 µM
  TGI: 73.8 µM
[30]
  GI50: 3.3 µM
  TGI: > 100 µM
[31]
  GI50: 18.1 µM
  TGI: > 100 µM
[32]
  GI50: 8.05 µM
  TGI: > 100 µM
[33]
  GI50: 2.53 µM
  TGI: 6.33 µM
[34]
  GI50: 2.46 µM
  TGI: 7.78 µM
[35]
  GI50: 3.65 µM
  TGI: > 100 µM
[36]
  GI50: 15.5 µM
  TGI: > 100 µM
[37]
  GI50: > 100 µM
  TGI: > 100 µM
[38]
  GI50: 63.5 µM
  TGI: > 100 µM
[39]
  GI50: > 100 µM
  TGI: > 100 µM
[40]
  GI50: > 100 µM
  TGI: > 100 µM
[41]
  GI50: 25.1 µM
  TGI: > 100 µM
[42]
  GI50: 9.26 µM
  TGI: > 100 µM
[43]
  GI50: 4.14 µM
  TGI: 19.5 µM
[44]
  GI50: 3.28 µM
  TGI: > 100 µM
[45]
  GI50: 6.61 µM
  TGI: > 100 µM
[46]
  GI50: > 100 µM
  TGI: > 100 µM
[47]
  GI50: 2.78 µM
  TGI: 10.7 µM
